Measurements as given in patent publication US12584905B2, “Method for identifying molecular markers of children's skin” (LABORATOIRES EXPANSCIENCE, priority 2012, dated 2026).

Assays:
Assay type in all cases: cell-based, human
[1] = system: reconstructed epidermises from donors of 1 month of age; assay: Cell viability (MTT test) of reconstructed epidermises after product application; conditions: reconstructed epidermis from 1-month-old donors, applied for 16 hours
Method: (§1) Reconstructed skin models were generated using these samples. Reconstructed epidermises were thus produced with the various donors selected using the technique by Poumay et al. (Arch Dermatol Res, 296(5): 203-211, 2004). After two days of submerged culture, the reconstructed epidermises were cultured at the air/liquid interface for 5 or 9 days. For the duration of the culture, the medium was replenished every 2 to 3 days.
(§2) Epidermises were reconstructed as specified in example 1 with keratinocytes from donors of 1 month of age. The products, a cleansing cream and a moisturising lotion both containing avocado perseose, were applied on these reconstructed epidermises for 16 hours. A control was produced by applying 0.4% SDS on control reconstructed epidermis samples.
(§3) IL-8 protein was assayed in the culture supernatant using an Elisa test. The cell viability was evaluated using the MTT test. Finally, a histological analysis was conducted on tissues included in paraffin by means of haematoxylin and eosin staining.

IL-8 protein = IL-8 protein assay in culture supernatant (Elisa test) of treated reconstructed epidermises; conditions: reconstructed epidermis from 1-month-old donors, applied for 16 hours
Method: as §1, §2, §3

[2] = system: reconstructed epidermises from donors of 1 month of age; assay: Histological analysis (haematoxylin and eosin) of thickness of live cell layers of treated reconstructed epidermises; conditions: histology, reconstructed epidermis from 1-month-old donors, applied for 16 hours, control = 100%, SDS at 0.4%
Method: as §1, §2, §3

- IL8 inflammatory molecule (IL-8 protein; Elisa in culture supernatant, control = 100%, SDS at 0.4%): 602%
- Effect on IL-8 expression (in words) (IL-8 protein): significant increase
SMILES: CCCCCCCCCCCCOS(=O)(=O)[O-].[Na+] [SDS]
- Viability ([1]; MTT test, control = 100%, SDS at 0.4%): 2%
- Effect on cell viability (in words) [1]: very significantly reduced
- Thickness of live layers [2]: 58%
